Data on 10 molecules can be found in patent US20170197935A1, “INHIBITORS OF DNA GYRASE FOR THE TREATMENT OF BACTERIAL INFECTIONS” (Vitas Pharma Research Private Limited, priority 2012, published 2017).

One data set deals with Acinetobacter BAA747. Nature of the data set: MIC by microbroth dilution, Acinetobacter BAA747. The data set is classed as cell-based. As to conditions: Formula II compounds, read-out: Minimum Inhibitory Concentration (MIC) Acinetobacter BAA747. Here is the method:
(§1) Shown below are the microbiological activities of representative compounds of Formula I of the invention. The compounds were tested by the microbroth dilution method (National committee for Clinical Laboratory Standards, 2011, M07-08) and the Minimum Inhibitory Concentration (MIC) was determined.
(§2) Analysis of microbiological activity of compounds shown below are the microbiological activities of representative compounds of Formula II of the invention. The compounds were tested by the microbroth dilution method as per the reference in Example 1.

For data set [1], the target named is T1, ciprofloxacin resistant recombinant Gyrase protein (with mutation S83L) (Escherichia coli, UniProt P0AES4+P0AES6, S83L).
T1 construct: purchased Inspiralis
Nature of the data set: Gyrase supercoiling assay with ciprofloxacin resistant Gyrase (S83L). Type of data set: biochemical. To be noted: read-out: Target specificity: % inhibition of supercoiling activity. Here is the method:
The enzyme is incubated with the substrate (relaxed DNA) in the presence and absence of compounds for 1 hour at 37° C. and the DNA is run on a gel at low voltage for several hours. The amount of supercoiled DNA is quantified using DNA imaging and quantification software (Image Lab). The activity of the enzyme is proportional to the amount of supercoiled form detected.

A further data set concerns E. faecalis ATCC 51299. As to the kind of experiment: MIC by microbroth dilution, E. faecalis ATCC 51299. Type of data set: cell-based. As to conditions: Enterococcus faecalis, ATCC51299, Formula II compounds, read-out: Minimum Inhibitory Concentration (MIC) E. faecalis ATCC 51299. Here is the method: as §1, §2
A further data set concerns E. coli (ATCC 25922). Nature of the data set: MIC by microbroth dilution, E. coli ATCC 25922. Type of data set: cell-based. As to conditions: Escherichia coli, ATCC25922, Formula II compounds, read-out: Minimum Inhibitory Concentration (MIC) E. coli ATCC 25922. The procedure:
as §1, §2

For a further data set, the system named is Pseudomonas ATCC 27853. Nature of the data set: MIC by microbroth dilution, Pseudomonas ATCC 27853. Type of data set: cell-based. To be noted: ATCC27853, Formula II compounds, read-out: Minimum Inhibitory Concentration (MIC) Pseudomonas ATCC 27853. Here is the method: as §1, §2
For data set [2], the system named is Methicillin resistant Staphylococcus aureus (ATCC 33591). As to the kind of experiment: MIC by microbroth dilution, MRSA ATCC 33591. The data set is classed as cell-based. To be noted: Formula II compounds, read-out: Minimum Inhibitory Concentration (MIC) MRSA ATCC 33591. Here is the method: as §1, §2
The nature of data set [3]: Single dose pharmacokinetics in male Swiss albino mice. The data set is classed as in vivo. As to conditions: mouse, in vivo; for bioavailability: oral 10 mg/kg vs i.v. 5 mg/kg. The procedure: (§3) Compounds were dosed to male Swiss albino mice to determine the pharmacokinetic profiles.
as §3

Another data set addresses hERG (Homo sapiens, UniProt Q12809). Nature of the data set: biochemical.

≈ marks a conversion by molar mass, not a printed value. Bounds are passed on as bounds.

Description for hERG: To test the ability of the VT-03 compounds to bind the hERG channel, membranes expressing the hERG channel were incubated with radiolabeled Astemizole and displacement of the labeled ligand in the presence of compounds was measured.
To test the ability of the VT-03 compounds (of Formula II) to bind the hERG channel, membranes expressing the hERG channel were incubated with radiolabeled Astemizole and displacement of the labeled ligand in the presence of compounds was measured.

For the molecule `O=c1cnc2ccc(F)cc2n1CCN1CCC(NCc2ccc(Cl)c([N+](=O)[O-])c2)CC1` [VT-03-00116], the MIC came to 0.25 µg/mL (≈ 0.544 µM) in the data set on Acinetobacter BAA747; 0.25 µg/mL (≈ 0.544 µM) in the data set on E. faecalis ATCC 51299; 0.25 µg/mL (≈ 0.544 µM) with E. coli (ATCC 25922); 16 µg/mL (≈ 34.8 µM) in the data set with Pseudomonas ATCC 27853; 0.03 µg/mL (≈ 0.0652 µM) in data set [2]. Besides, the inhibition at 0.1 µM in data set [1] stood at 96.9%. Also, the inhibition at 1 µM in data set [1] amounted to 94.3%.
With `Cc1ccc(CNC2CCN(CCn3c(=O)cnc4ccc(F)cc43)CC2)cc1C#N` [VT-03-00117], the MIC in the data set on Acinetobacter BAA747 was found to be 0.25 µg/mL (≈ 0.596 µM); in the data set with E. faecalis ATCC 51299, 0.25 µg/mL (≈ 0.596 µM); with E. coli (ATCC 25922), 0.5 µg/mL (≈ 1.19 µM); in the data set on Pseudomonas ATCC 27853, 16 µg/mL (≈ 38.1 µM); in data set [2], 0.125 µg/mL (≈ 0.298 µM). For the same molecule, the inhibition at 0.1 µM in data set [1] came out at 88.2%. In data set [1], the inhibition at 1 µM was determined as 97.5%.
As for `Cc1ccc(CNC2CCN(CCn3c(=O)cnc4ccc(Cl)nc43)CC2)cc1[N+](=O)[O-]` [VT-03-00118], the MIC came out at 0.25 µg/mL (≈ 0.547 µM) in the data set on Acinetobacter BAA747; 0.125 µg/mL (≈ 0.274 µM) in the data set with E. faecalis ATCC 51299; 0.25 µg/mL (≈ 0.547 µM) in the data set with E. coli (ATCC 25922); 8 µg/mL (≈ 17.5 µM) in the data set on Pseudomonas ATCC 27853; 0.015 µg/mL (≈ 0.0328 µM) in data set [2]. Further, the inhibition at 0.1 µM in data set [1] is 91.5%. Moreover, the inhibition at 1 µM in data set [1] is 89%. Also, the AUC(0-t) in data set [3] (iv, 5 mg/kg) is 497 ng·h/mL; in data set [3] (oral, 10 mg/kg), 9.3 ng·h/mL. Also, the Cmax in data set [3] (iv, 5 mg/kg) was 913 ng/mL; in data set [3] (oral, 10 mg/kg), 18.6 ng/mL. The Tmax in data set [3] (iv, 5 mg/kg) was 9.6 min; in data set [3] (oral, 10 mg/kg), 60 min. In addition, the half-life is 22.2 min in data set [3] (iv, 5 mg/kg) and 666 min in data set [3] (oral, 10 mg/kg). For the same molecule, the bioavailability in data set [3] was found to be 1.12%. Besides, the IC50 against hERG was > 30 µM.
For the molecule `Cc1ccc(CNC2CCN(CCn3c(=O)cnc4ncc(C#N)cc43)CC2)cc1[N+](=O)[O-]` [VT-03-00119], the MIC in the data set on Acinetobacter BAA747 was 8 µg/mL (≈ 17.9 µM); in the data set on E. faecalis ATCC 51299, 16 µg/mL (≈ 35.8 µM); in the data set with E. coli (ATCC 25922), 8 µg/mL (≈ 17.9 µM); in the data set on Pseudomonas ATCC 27853, > 32 µg/mL; in data set [2] it was 4 µg/mL (≈ 8.94 µM).
Turning to `COc1ccc2ncc(=S)n(CCN3CCC(NCc4ccc(C)c(F)c4)CC3)c2c1` [VT-03-00126], the MIC is 8 µg/mL (≈ 18.2 µM) in the data set with Acinetobacter BAA747, 2 µg/mL (≈ 4.54 µM) in the data set on E. coli (ATCC 25922), > 32 µg/mL in the data set on Pseudomonas ATCC 27853 and 0.5 µg/mL (≈ 1.13 µM) in data set [2].
For `COc1ccc2ncc(=S)n(CCN3CCC(NCc4ccc(C)c([N+](=O)[O-])c4)CC3)c2c1` [VT-03-00127], the MIC came to 1 µg/mL (≈ 2.14 µM) in the data set on Acinetobacter BAA747; 1 µg/mL (≈ 2.14 µM) in the data set with E. faecalis ATCC 51299; 1 µg/mL (≈ 2.14 µM) in the data set on E. coli (ATCC 25922); 8 µg/mL (≈ 17.1 µM) in the data set on Pseudomonas ATCC 27853; 0.125 µg/mL (≈ 0.267 µM) in data set [2]. Further, in data set [1], the inhibition at 0.1 µM came to 39%. Moreover, the inhibition at 1 µM in data set [1] came to 72%. For the same molecule, the AUC(0-t) in data set [3] (iv, 5 mg/kg) is 527 ng·h/mL; in data set [3] (oral, 10 mg/kg), 198 ng·h/mL. For the same molecule, the Cmax in data set [3] (iv, 5 mg/kg) was 478 ng/mL; in data set [3] (oral, 10 mg/kg), 97 ng/mL. For the same molecule, the Tmax in data set [3] (iv, 5 mg/kg) amounted to 9.6 min; in data set [3] (oral, 10 mg/kg) it was 30 min. The half-life was 120 min in data set [3] (iv, 5 mg/kg) and 173 min in data set [3] (oral, 10 mg/kg). This molecule returned a bioavailability in data set [3] of 18.8%.
As for `COc1ccc2ncc(=O)n(CCN3CCC(NCc4ccc(Cl)c([N+](=O)[O-])c4)CC3)c2c1` [VT-03-00128], the MIC in the data set with Acinetobacter BAA747 is 0.25 µg/mL (≈ 0.53 µM); in the data set with E. faecalis ATCC 51299 it was 0.25 µg/mL (≈ 0.53 µM); in the data set with E. coli (ATCC 25922) it was 0.5 to 1 µg/mL (≈ 1.06 to 2.12 µM); in the data set on Pseudomonas ATCC 27853, 8 µg/mL (≈ 17 µM); in data set [2], 0.015 µg/mL (≈ 0.0318 µM). Moreover, the inhibition at 0.1 µM in data set [1] was 34%. Moreover, in data set [1], the inhibition at 1 µM came to 51%.
With `Cc1ccc(CNC2CCN(CCn3c(=O)cnc4ccc(Cl)nc43)CC2)cc1C#N` [VT-03-00131], the MIC in the data set with Acinetobacter BAA747 was 0.25 µg/mL (≈ 0.572 µM); in the data set on E. faecalis ATCC 51299 it was 0.25 µg/mL (≈ 0.572 µM); in the data set with E. coli (ATCC 25922), 0.25 to 1 µg/mL (≈ 0.572 to 2.29 µM); with Pseudomonas ATCC 27853 it was 16 µg/mL (≈ 36.6 µM); in data set [2], 0.25 µg/mL (≈ 0.572 µM).
For the molecule `COc1ccc2ncc(=S)n(CCN3CCC(NCc4ccc(C)c(C#N)c4)CC3)c2c1` [VT-03-00132], the MIC was found to be 2 µg/mL (≈ 4.47 µM) in the data set with Acinetobacter BAA747; 1 µg/mL (≈ 2.23 µM) in the data set on E. faecalis ATCC 51299; 2 µg/mL (≈ 4.47 µM) with E. coli (ATCC 25922); 32 µg/mL (≈ 71.5 µM) in the data set with Pseudomonas ATCC 27853; 1 µg/mL (≈ 2.23 µM) in data set [2].
Regarding `COc1ccc2ncc(=O)n(CCN3CC[C@H](NCc4ccc(C)c([N+](=O)[O-])c4)[C@H](F)C3)c2c1` [VT-03-00134], the MIC with Acinetobacter BAA747 came to 0.5 µg/mL (≈ 1.06 µM); in the data set with E. faecalis ATCC 51299, 0.25 µg/mL (≈ 0.532 µM); in the data set on E. coli (ATCC 25922), 2 µg/mL (≈ 4.26 µM); in the data set on Pseudomonas ATCC 27853, 32 µg/mL (≈ 68.2 µM); in data set [2], 0.015 µg/mL (≈ 0.0319 µM).
